Data published in patent US10703733B2, “MCL-1 inhibitors” (Gilead Sciences, Inc., priority 2018, dated 2020).
Like-named read-outs stand apart in the source and are kept apart here.

Columns and labels:
SKBR3 cells = assay: SKBR3 Cell Viability Assay (CellTiter Glo); format: cell-based; conditions: CellTiter Glo luminescence, read-out: MCL-1 CV SKBR3 EC50
Method: SKBR3 Cell Viability Assay Materials
SKBR3 Cells (ATCC HTB-30) were obtained from ATCC (Manassas, Va.) and cultured in McCoy 5A's medium (ATCC 30-2007)+10% fetal bovine serum (SH30071.03, HyClone, Pittsburgh, Pa.) plus 1× Penicillin-Streptomycin L-glutamine (Corning 30-009-C1, Corning, N.Y.)).
The cell viability assay was conducted in a 384-well tissue culture plate (Grenier 781086, Monroe, N.C.) in a total volume of 70 μL. Test compounds were prepared in 1,000×, serially diluted, and pre-spotted into 384-well tissue culture plate by Echo 555 Liquid Handler (Labcyte Inc., San Jose, Calif.). Seventy μl of 6,000 SKBR3 cells were dispensed into each well of the plate and incubated at 37° C. with 5% CO2 for 72 hours. At the end of incubation, 2× CellTiter Glo (CTG) reagents (1 part buffer with 2 parts substrate) (Promega, Madison, Wis.) were prepared, and the plate and the reagent were equilibrated to room temperature for 30 minutes. CTG reagent was added to each plate by Biomek FX at 20 μL/well with 5 times pipetting and mixing to induce cell lysis. Luminescence was read by Envision multimode reader (PerkinElmer). […] Percent inhibition was calculated as followed: % Inhibition=100%*(Well−Neg)/(Pos−Neg) Neg, negative control, DMSO Pos, positive control, 10 μM Puromycin

[1] = biological target: MCL-1/Bim interaction (recombinant human MCL-1 protein, residues 171-327; biotinylated human Bim peptide, residues 51-76) (Homo sapiens (Human), UniProt Q07820); assay: MCL-1/Bim Binding AlphaLISA Assay; conditions: 0.0625 nM 6xHis-Mcl-1 (171-327), 0.0625 nM biotinylated-Bim peptide
Method: MCL-1/Bim Binding AlphaLISA Assay.
Inhibition of the MCL-1 and Bim interaction was measured in the following AlphaLISA assay.
Recombinant human MCL-1 protein (C-terminal 6×His Tagged Mcl-1 containing residues 171-327) was generated at Gilead Sciences, Inc. (Foster City, Calif.). A biotinylated peptide derived from human Bim (residues 51-76) was purchased from CPC Scientific (Sunnyvale, Calif.). (CPC 834113). AlphaLISA anti-6His-acceptor beads (AL128R), AlphaScreen Streptavidin donor beads (6760002B), and Proxiplate-384 Plus (6008289) were purchased from PerkinElmer.
The AlphaLISA assay was performed in a 384-well Proxiplate in a total volume of […]. The reaction mixture contained 0.0625 nM 6×His-Mcl-1 (171-327), 0.0625 nM biotinylated-Bim peptide, 10 μg/mL AlphaLISA anti-6×His-AlphaLISA acceptor beads, […] AlphaScreen streptavidin donor beads, and serially diluted test compounds in the binding buffer (20 mM Hepes, pH 7.5 (Teknova H1035); 150 mM NaCl (Promega V4221); 0.002% Brij 35 (Thermo Scientific 20150); 1 mM Dithiothreitol (DTT) Solution (Affymetrix 70726); 0.01% BSA (BioLabs B9000S)). 1,000×test compounds were pre-spotted onto 384-well Proxiplate (Labcyte Echo) by Echo 555 Liquid Handler (Labcyte Inc., San Jose, Calif.) followed by incubation of 5 μl Mcl-1(171-327) for 1 hour. Then 5 μL Bim (51-76) was added and incubated for 2 hours. Five μL AlphaLISA anti-6His-AlphaLISA acceptor beads were then added for 1 hour followed by addition of 5 μL AlphaScreen streptavidin donor beads for 1 hour. The reaction plates were then read on an Envision multimode reader (PerkinElmer) using AlphaScreen settings. […] Percent inhibition was calculated as shown below: % Inhibition=100%*(Well−Neg)/(Pos−Neg) Neg: negative control, DMSO Pos: positive control, no Mcl-1 protein, no biotinylated-Bim peptide

Chain of MCL-1/Bim interaction (recombinant human MCL-1 protein, residues 171-327; biotinylated human Bim peptide, residues 51-76) (Q07820 171-327): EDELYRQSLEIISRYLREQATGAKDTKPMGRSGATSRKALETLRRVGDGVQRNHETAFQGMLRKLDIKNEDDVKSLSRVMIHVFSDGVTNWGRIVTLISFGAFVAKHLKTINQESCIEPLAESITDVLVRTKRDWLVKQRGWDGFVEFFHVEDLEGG

Compound | EC50 (SKBR3 cells; Homo sapiens, SK-BR-3, 72 h) | IC50 [1] | EC50 (SKBR3 cells; 72 hours)
CO[C@H]1/C=C/C[C@H](C)C[S@@](=O)(NC(=O)N[C@H]2CC23CCOC3)=NC(=O)c2ccc3c(c2)N(C[C@@H]2CC[C@H]21)C[C@@]1(CCCc2cc(Cl)ccc21)CO3 (single isomer, unassigned) [Example 341] | 39.4 nM | 0.032 nM | 
CO[C@H]1/C=C/C[C@H](C)C[S@@](=O)(NC(=O)N[C@@H]2CC23CCOC3)=NC(=O)c2ccc3c(c2)N(C[C@@H]2CC[C@H]21)C[C@@]1(CCCc2cc(Cl)ccc21)CO3 (single isomer, unassigned) [Example 342] | 33.6 nM | 0.029 nM | 
CO[C@H]1/C=C/C[C@H](C)C[S@@](=O)(NC(=O)N[C@H]2C[C@H]2CO)=NC(=O)c2ccc3c(c2)N(C[C@@H]2CC[C@H]21)C[C@@]1(CCCc2cc(Cl)ccc21)CO3 (single isomer, unassigned) [Example 365] | 146 nM | 0.04 nM | 
COc1nn(C)cc1C(=O)NS1(=O)=NC(=O)c2ccc3c(c2)N(C[C@@H]2CC[C@H]2[C@@H](OC)/C=C/[C@H](OC(=O)CCc2ccccc2)[C@H](C)C1)C[C@@]1(CCCc2cc(Cl)ccc21)CO3 (single isomer, unassigned) [Example 378] |  | 1.15 nM | 1180 nM
CCC(=O)N[S@@]1(=O)=NC(=O)c2ccc3c(c2)N(C[C@@H]2CC[C@H]2[C@@H](OC)/C=C/C[C@H](C)[C@H]1C)C[C@@]1(CCCc2cc(Cl)ccc21)CO3 [Example 2] | 792 nM | 1.5 nM | 
CO[C@H]1/C=C/CCC[S@](N)(=O)=NC(=O)c2ccc3c(c2)N(C[C@@H]2CC[C@H]21)C[C@@]1(CCCc2cc(Cl)ccc21)CO3 [Example 6] |  | 27.3 nM | 8730 nM
CCC(=O)N[S@@]1(=O)=NC(=O)c2ccc3c(c2)N(C[C@@H]2CC[C@H]2[C@@H](OC)CCCCC1)C[C@@]1(CCCc2cc(Cl)ccc21)CO3 [Example 12] |  | 1.7 nM | 4460 nM
CCC(=O)N[S@]1(=O)=NC(=O)c2ccc3c(c2)N(C[C@@H]2CC[C@H]2[C@@H](OC)CCCCC1)C[C@@]1(CCCc2cc(Cl)ccc21)CO3 [Example 17] |  | 11.3 nM | 10000 nM
CO[C@H]1/C=C/CCC[S@@](=O)(NC(=O)NC(C)C)=NC(=O)c2ccc3c(c2)N(C[C@@H]2CC[C@H]21)C[C@@]1(CCCc2cc(Cl)ccc21)CO3 [Example 19] | 1080 nM | 1.1 nM | 
CO[C@H]1/C=C/CCC[S@@](=O)(NC(=O)Cc2cnccn2)=NC(=O)c2ccc3c(c2)N(C[C@@H]2CC[C@H]21)C[C@@]1(CCCc2cc(Cl)ccc21)CO3 [Example 20] | 2060 nM | 0.5 nM | 
CO[C@H]1/C=C/CCC[S@@](=O)(NC(=O)CC2CC2)=NC(=O)c2ccc3c(c2)N(C[C@@H]2CC[C@H]21)C[C@@]1(CCCc2cc(Cl)ccc21)CO3 [Example 21] | 1300 nM | 0.8 nM | 
CO[C@H]1/C=C/CCC[S@@](=O)(NC(=O)CC(F)(F)F)=NC(=O)c2ccc3c(c2)N(C[C@@H]2CC[C@H]21)C[C@@]1(CCCc2cc(Cl)ccc21)CO3 [Example 23] | 1450 nM | 0.8 nM | 
CO[C@H]1/C=C/CCC[S@@](=O)(NC(=O)C2COC2)=NC(=O)c2ccc3c(c2)N(C[C@@H]2CC[C@H]21)C[C@@]1(CCCc2cc(Cl)ccc21)CO3 [Example 24] | 891 nM | 0.2 nM | 
CO[C@H]1/C=C/CCC[S@@](=O)(NC(C)=O)=NC(=O)c2ccc3c(c2)N(C[C@@H]2CC[C@H]21)C[C@@]1(CCCc2cc(Cl)ccc21)CO3 [Example 25] | 2010 nM | 0.6 nM | 
CO[C@H]1/C=C/CCC[S@@](=O)(NC(=O)CC(C)C)=NC(=O)c2ccc3c(c2)N(C[C@@H]2CC[C@H]21)C[C@@]1(CCCc2cc(Cl)ccc21)CO3 [Example 26] | 1690 nM | 1.8 nM | 
CO[C@H]1/C=C/CCC[S@@](=O)(NC(=O)C2CC2)=NC(=O)c2ccc3c(c2)N(C[C@@H]2CC[C@H]21)C[C@@]1(CCCc2cc(Cl)ccc21)CO3 [Example 27] | 2080 nM | 1.6 nM | 

Compound | EC50 (SKBR3 cells; Homo sapiens, SK-BR-3, 72 h) | IC50 [1] | EC50 (SKBR3 cells; 72 hours)
CO[C@H]1/C=C/CCC[S@@](=O)(NC(=O)CCS(C)(=O)=O)=NC(=O)c2ccc3c(c2)N(C[C@@H]2CC[C@H]21)C[C@@]1(CCCc2cc(Cl)ccc21)CO3 [Example 28] | 8410 nM | 0.2 nM | 
CO[C@H]1/C=C/CCC[S@@](=O)(NC(=O)Cc2ccnn2C)=NC(=O)c2ccc3c(c2)N(C[C@@H]2CC[C@H]21)C[C@@]1(CCCc2cc(Cl)ccc21)CO3 [Example 29] | 1840 nM | 0.6 nM | 
CO[C@H]1/C=C/CCC[S@@](=O)(NC(=O)Cc2ncccn2)=NC(=O)c2ccc3c(c2)N(C[C@@H]2CC[C@H]21)C[C@@]1(CCCc2cc(Cl)ccc21)CO3 [Example 30] | 1840 nM | 0.6 nM | 
CO[C@H]1/C=C/CCC[S@@](=O)(NC(=O)C2CCC2)=NC(=O)c2ccc3c(c2)N(C[C@@H]2CC[C@H]21)C[C@@]1(CCCc2cc(Cl)ccc21)CO3 [Example 31] | 2590 nM | 3.1 nM | 
CO[C@H]1/C=C/CCC[S@@](=O)(NC(=O)NC2(C(F)(F)F)CC2)=NC(=O)c2ccc3c(c2)N(C[C@@H]2CC[C@H]21)C[C@@]1(CCCc2cc(Cl)ccc21)CO3 [Example 32] | 1480 nM | 1.4 nM | 
CC#CC(=O)N[S@@]1(=O)=NC(=O)c2ccc3c(c2)N(C[C@@H]2CC[C@H]2[C@@H](OC)/C=C/CCC1)C[C@@]1(CCCc2cc(Cl)ccc21)CO3 [Example 33] | 7440 nM | 2.9 nM | 
CO[C@H]1/C=C/CCC[S@@](=O)(NC(=O)NC(C)(C)C(F)(F)F)=NC(=O)c2ccc3c(c2)N(C[C@@H]2CC[C@H]21)C[C@@]1(CCCc2cc(Cl)ccc21)CO3 [Example 34] | 3350 nM | 2 nM | 
CO[C@H]1/C=C/CCC[S@@](=O)(NC(=O)CCc2cnccn2)=NC(=O)c2ccc3c(c2)N(C[C@@H]2CC[C@H]21)C[C@@]1(CCCc2cc(Cl)ccc21)CO3 [Example 35] | 266 nM | 0.2 nM | 
CO[C@H]1/C=C/CCC[S@@](=O)(NC(=O)C#CC(C)(C)C)=NC(=O)c2ccc3c(c2)N(C[C@@H]2CC[C@H]21)C[C@@]1(CCCc2cc(Cl)ccc21)CO3 [Example 36] | 10000 nM | 8.1 nM | 
CO[C@H]1/C=C/CCC[S@@](=O)(NC(=O)CCc2ccncn2)=NC(=O)c2ccc3c(c2)N(C[C@@H]2CC[C@H]21)C[C@@]1(CCCc2cc(Cl)ccc21)CO3 [Example 38] | 280 nM | 0.2 nM | 
CO[C@H]1/C=C/CCC[S@@](=O)(NC(=O)CCn2cccn2)=NC(=O)c2ccc3c(c2)N(C[C@@H]2CC[C@H]21)C[C@@]1(CCCc2cc(Cl)ccc21)CO3 [Example 39] | 262 nM | 0.1 nM | 
CO[C@H]1/C=C/CCC[S@@](=O)(NC(=O)CCc2cccnc2)=NC(=O)c2ccc3c(c2)N(C[C@@H]2CC[C@H]21)C[C@@]1(CCCc2cc(Cl)ccc21)CO3 [Example 40] | 328 nM | 0.1 nM | 
CO[C@H]1/C=C/CCC[S@@](=O)(NC(=O)CCc2ccncc2)=NC(=O)c2ccc3c(c2)N(C[C@@H]2CC[C@H]21)C[C@@]1(CCCc2cc(Cl)ccc21)CO3 [Example 41] | 256 nM | 0.1 nM | 
CO[C@H]1/C=C/CCC[S@@](=O)(NC(=O)CCn2cncn2)=NC(=O)c2ccc3c(c2)N(C[C@@H]2CC[C@H]21)C[C@@]1(CCCc2cc(Cl)ccc21)CO3 [Example 42] | 3340 nM | 0.1 nM | 
CO[C@H]1/C=C/CCC[S@@](=O)(NC(=O)CCc2nccn2C)=NC(=O)c2ccc3c(c2)N(C[C@@H]2CC[C@H]21)C[C@@]1(CCCc2cc(Cl)ccc21)CO3 [Example 43] | 2410 nM | 1.6 nM | 
